What was measured:
HECA-452 epitopes = assay: Flow cytometric analysis of HECA-452 epitopes on human T-lymphocytes; format: cell-based; settings: for HECA-452 Mean Channel Fluorescence: CLA+ T-cells
Description: Only positive cells, which were those cells with fluorescence above background autofluorescence and fluorochrome-conjugated secondary Ab staining, were analyzed.
For analysis of CLA expression on T-cells treated with glycoconjugate modifiers, CLA^+ T-cells were first pretreated with neuraminidase (0.1 U/ml at 37° C. for 1 h) to eliminate functional CLA and cleave all HECA-452 reactive epitopes from the cell surface (35–38). Since we wanted to investigate whether these compounds directly affected CLA expression and function, neuraminidase pretreatment followed by incubations with glycosylation modifiers allowed for examination of de novo synthesized CLA/HECA-452 epitopes re-expressed on the cell surface. After neuraminidase digestion, cells were then incubated with tunicamycin (0.02 mM) (an inhibitor of GlcNAc phosphotransferase, the initial step of N-glycosylation), swainsonine (0.23 mM) (an inhibitor of α-mannosidase II and complex-type N-glycosylation), 4-F-GlcNAc (0.05 mM) (putative inhibitor of poly-N-acetyllactosamine biosynthesis), BAG (an inhibitor of O-glycan biosynthesis) (<2 mM) or GlcNAc (5 mM) (negative control, naturally-occurring metabolic counterpart of 4-F-GlcNAc)for 30 h in the presence of human recombinant IL-2. […] Concentrations for BAG were selected based on maximal O-glycosylation inhibitory effects at non-growth inhibitory concentrations as previously reported (39). To determine a suitable concentration of 4-F-GlcNAc for examining glycoconjugate-modifying effects without influencing cell growth or protein synthesis, we performed preliminary growth inhibitory experiments of cells incubated with 4-F-GlcNAc for 2 cell doublings (˜36 h) at 37° C. (cell viability assessed by Trypan-blue exclusion).
Flow cytometric analysis was performed on human leukocytes utilizing both direct and indirect immunofluorescence staining approaches. All cells utilized for these experiments were washed twice with cold PBS/2%FBS and suspended at 10^7/ml PBS/1% FBS. Primary antibodies, anti-CLA (HECA-452), -CD4, -CD8, CD43 (L60) and PSGL-1 (PL-2) along with the appropriate isotype-matched control antibodies were incubated with the cells for 30 min on ice. Following two washes with PBS/2%FBS, cells were resuspended in PBS/1%FBS and fluorochrome-conjugated secondary antibodies (2 μl) and incubated for 30 min on ice.

[1] = test system: HECA-452 epitopes on human hematopoietic KG1a cells; assay: Flow cytometric analysis of HECA-452 epitopes on KG1a cells; format: cell-based
Excerpt: (§1) In a similar set of experiments, we analyzed the effects of 4-F-GlcNAc on selectin ligand expression and function on the human hematopoietic cell line KGla. KGla cells express a distinct HECA-452-reactive CD44 glycoform that functions as both an E- and L-selectin ligand (Dimitroff, C. J. et al. (2001) J. Cell Biol., 53: 1277–1286; Dimitroff, C. J. et al. (2000) Proc. Nat. Acad. Sci., 97(25):13841–46; Sackstein, R. and Dimitroff, C. J. (2000) Blood, 96: 2765–74.), otherwise known as HCELL, respectively. This specialized glycoform represents a major E-selectin and the primary L-selectin ligand on normal CD34+ HPCs and on leukemic cells, and, therefore, is also implicated in the BM homing aspects and growth-related activities of HPCs in vivo, respectively (Id.). We first performed flow cytometric analysis of HECA-452 antigen and CD44 on 4-F-GlcNAc-treated KGla cells. […] Only positive cells, which were those cells with fluorescence above background autofluorescence and fluorochrome-conjugated secondary Ab staining, were analyzed.
(§2) Flow cytometric analysis was performed on human leukocytes utilizing both direct and indirect immunofluorescence staining approaches. All cells utilized for these experiments were washed twice with cold PBS/2%FBS and suspended at 10^7/ml PBS/1% FBS. Primary antibodies, anti-CLA (HECA-452), -CD4, -CD8, CD43 (L60) and PSGL-1 (PL-2) along with the appropriate isotype-matched control antibodies were incubated with the cells for 30 min on ice. Following two washes with PBS/2%FBS, cells were resuspended in PBS/1%FBS and fluorochrome-conjugated secondary antibodies (2 μl) and incubated for 30 min on ice. Cells were washed twice with PBS/2%FBS, resuspended in PBS and flow cytometry was performed on a FACScan apparatus equipped with an argon laser tuned at 488 nm (Becton Dickinson).

[2] = test system: human ovarian, A121, tumor cells; settings: cited from earlier work
[3] = test system: CD44 on human hematopoietic KG1a cells; assay: Flow cytometric analysis of CD44 on KG1a cells; format: cell-based
Excerpt: as §1, §2

[4] = test system: panel of human tumor cell lines as well as normal endothelial cells; assay: Growth inhibition (IC50) of human tumor cell lines and normal endothelial cells; format: cell-based; settings: newly synthesized compounds compared with compounds synthesized by the original method
Excerpt: Before conducting experiments with newly synthesized 3- and 4-F-GlcNAc the effects of 3- and 4-F-GlcNAc on the growth of a panel of human tumor cell lines as well as normal endothelial cells (i.e. IC50 values) were first determined and compared with the original growth inhibitory action (9 Bernacki, R. J. et al. (1977) J. Supra. Stru., 7:235–250; 10 Sharma, M. and W. Korytnyk (1980) Carbohyd. Res., 79:39–51;11 Sharma, M. et al. (1990). Carbohyd. Res., 198:205–22).

[5] = KG1a neuraminidase then recovery in 0.05 mM
[6] = KG1a neuraminidase then recovery in 0.1 mM
[7] = KG1a neuraminidase then recovery in 0.5 mM

CC(=O)N[C@H]1C(OC(C)=O)O[C@H](COC(C)=O)[C@@H](F)[C@@H]1OC(C)=O (stereo partly drawn) [4-F-GlcNAc, 2-acetamido-2-deoxy-1,3,6-tri-O-acetyl-4-deoxy-4-fluoro-D-glucopyranose]
HECA-452 epitopes on CLA+ T-cells (HECA-452 epitopes; 0.05, 0.1 or 0.5 mM for 30 hr after neuraminidase): marked, concentration-dependent decrease | HECA-452 Mean Channel Fluorescence (HECA-452 epitopes; neuraminidase then recovery in 0.05 mM): 228 | HECA-452 Mean Channel Fluorescence (HECA-452 epitopes; neuraminidase then recovery in 0.1 mM): 217 | HECA-452 Mean Channel Fluorescence (HECA-452 epitopes; neuraminidase then recovery in 0.5 mM): 62 | de novo re-expression of the HECA-452 epitopes on KG1a cells ([1]; 0.05, 0.1 or 0.5 mM after neuraminidase): inhibited in a concentration-dependent manner | HECA-452 Mean Channel Fluorescence [1, 5]: 112 | HECA-452 Mean Channel Fluorescence [1, 6]: 108 | HECA-452 Mean Channel Fluorescence [1, 7]: 43 | incorporation of radiolabeled sugar precursors [2]: conspicuous reductions | CD44 % Positive Cell Staining [3, 5]: 100% | CD44 % Positive Cell Staining [3, 6]: 100% | CD44 % Positive Cell Staining [3, 7]: 100% | expression of CD44 on KG1a cells ([3]; even at 0.5 mM): no reduction | IC50 values, growth of tumor cell lines and normal endothelial cells [4]: identical to those that were previously described

Reference: patent publication US7098195B2, “Fluorinated glucosamine analogs useful for modulating post-translational glycosylations on cells” (Health Research, Inc., priority 2001, dated 2006)
